Experimental findings from US20180008587A1, “THIOHYDANTOIN ANDROGEN RECEPTOR ANTAGONISTS FOR THE TREATMENT OF CANCER” (Jaressen Pharmaceutica NV, priority 2016, published 2018) are described below.

Where a chain is given by its changes, count along the chain named. Where two headings read alike, the source gives them in different places. Bounds are passed on as bounds.

Type in all cases: cell-based
Assay [1] addresses T1, wild-type Androgen Receptor (AR-wt) (Homo sapiens, UniProt P10275).
T1 construct: expressed in transfected cells; host or cells: LNCaP (LNCaP AR (cs))
T1 sequence (P10275 1-920): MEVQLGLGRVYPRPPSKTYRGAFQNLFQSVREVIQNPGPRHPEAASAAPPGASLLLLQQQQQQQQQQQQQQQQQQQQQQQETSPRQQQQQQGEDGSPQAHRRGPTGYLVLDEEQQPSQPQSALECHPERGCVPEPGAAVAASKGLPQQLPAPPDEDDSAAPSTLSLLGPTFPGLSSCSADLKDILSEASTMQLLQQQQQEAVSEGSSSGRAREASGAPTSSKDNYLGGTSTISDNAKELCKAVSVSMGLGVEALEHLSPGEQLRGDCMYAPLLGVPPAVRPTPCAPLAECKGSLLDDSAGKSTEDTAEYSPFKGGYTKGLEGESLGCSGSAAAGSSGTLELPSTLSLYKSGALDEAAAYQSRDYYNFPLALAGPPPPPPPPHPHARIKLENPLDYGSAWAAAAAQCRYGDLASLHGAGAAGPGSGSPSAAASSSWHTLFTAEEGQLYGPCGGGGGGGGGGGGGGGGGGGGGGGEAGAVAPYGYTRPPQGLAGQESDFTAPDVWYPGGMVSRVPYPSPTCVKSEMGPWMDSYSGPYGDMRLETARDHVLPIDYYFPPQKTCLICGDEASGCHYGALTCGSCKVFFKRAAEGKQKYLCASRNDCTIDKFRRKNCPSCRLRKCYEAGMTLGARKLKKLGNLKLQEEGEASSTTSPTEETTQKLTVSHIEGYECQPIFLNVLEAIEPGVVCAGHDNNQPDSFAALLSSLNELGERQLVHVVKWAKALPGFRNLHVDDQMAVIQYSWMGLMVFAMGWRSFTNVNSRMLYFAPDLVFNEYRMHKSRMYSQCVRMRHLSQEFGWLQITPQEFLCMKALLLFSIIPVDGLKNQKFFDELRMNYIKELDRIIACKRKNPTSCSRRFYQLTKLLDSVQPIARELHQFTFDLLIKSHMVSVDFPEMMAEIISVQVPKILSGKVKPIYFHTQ
Briefly: LNCaP-AR-wt AG reporter assay (ARE firefly luciferase, agonist mode). As to conditions: for Emax: read-out: LNCaP-AR-wt AG MAX % Stim. In short, it runs like this:
(§1)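 Puromycin-selected pooled LNCaP populations expressing AR-wt or AR-F876L are seeded in CSS medium and treated with compound for 20-24 h at 37 °C. For antagonist testing, agonist is added at 400 pM (WT) or 600 pM (F876L). Potency values derive from least-squares fitting of luminescence RLU.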
(Reporter assays use an easily measured gene product as a stand-in for the process of interest.)

Assay [2] has as its target T2, F876L mutant Androgen Receptor (AR-F876L) (Homo sapiens, UniProt P10275, F877L).
T2 construct: expressed in transfected cells; host or cells: LNCaP (LNCaP F876L)
T2 sequence (P10275 1-920 F877L): T1 sequence (P10275 1-920) with F877L
Nature of the assay: LNCaP-AR-F876L AG reporter assay (ARE firefly luciferase, agonist mode). To be noted: for Emax: read-out: LNCaP-AR-F876L AG MAX % Stim. The procedure, abridged:
as §1

In assay [3] the target is T1, wild-type Androgen Receptor (AR-wt). Nature of the assay: LNCaP-AR-wt ANT reporter assay (ARE firefly luciferase, antagonist mode). To be noted: for IC50: antagonist mode, 400 pM R-1881 challenge, −Log10(IC50 [Molar]), read-out: LNCaP-AR-wt ANT pIC50 (converted); for Emax: read-out: LNCaP-AR-wt ANT MAX % Inh. In short, it runs like this:
(§2)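 Puromycin-selected LNCaP pools, grown in charcoal-stripped serum, were incubated 20-24 h at 37 °C with compounds, plus agonist challenge at 400 pM for wild-type and 600 pM for F876L.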

Assay [4] has as its target T2, F876L mutant Androgen Receptor (AR-F876L). Briefly: LNCaP-AR-F876L ANT reporter assay (ARE firefly luciferase, antagonist mode). To be noted: for Emax: read-out: LNCaP-AR-F876L ANT MAX % Inh; for IC50: read-out: LNCaP-AR-F876L ANT pIC50 (converted). The procedure, abridged: as §2
Where [5] appears, read: agonist mode, −Log10(EC50 [Molar]), read-out: LNCaP-AR-wt AG pEC50 (converted).
The mark [6] stands for this setting: maximum % stimulation (agonist response) over tested concentration range.
[7] abbreviates: agonist mode, −Log10(EC50 [Molar]), read-out: LNCaP-AR-F876L AG pEC50 (converted).
Where [8] appears, read: maximum % inhibition of R1881 control response over tested concentration range.

In the case of `N#Cc1ncc(N2C(=O)C3(CCC3)N(c3ccc(C(=O)N4CCCC4)c(F)c3)C2=S)cc1C(F)(F)F` [Cpd 52, 5-[8-[3-fluoro-4-(pyrrolidine-1-carbonyl)phenyl]-5-oxo-7-thioxo-6,8-diazaspiro[3.4]octan-6-yl]-3-(trifluoromethyl)pyridine-2-carbonitrile], the EC50 in assay [1] (setting [5]) and in assay [2] (setting [7]) was over 15.1 µM each time. Besides, the Emax in assay [1] (setting [6]) came to 0.4%; in assay [2] (setting [6]) it was 0.4%; in assay [3] (setting [8]) it was 101%; in assay [4] (setting [8]) it was 102%. Also, the results for the IC50 in assay [3] and in assay [4] were 0.741 µM and 0.468 µM, respectively.

`N#Cc1ncc(N2C(=O)C3(CCC3)N(c3ccc(OCCCN4CCCC4)c(F)c3)C2=S)cc1C(F)(F)F` [Cpd 55, 5-[8-[3-fluoro-4-(3-pyrrolidin-1-ylpropoxy)phenyl]-5-oxo-7-thioxo-6,8-diazaspiro[3.4]octan-6-yl]-3-(trifluoromethyl)pyridine-2-carbonitrile]: the EC50 in assay [1] and in assay [2] was over 15.1 µM throughout. Also, the Emax in assay [1] was found to be 0.7%; in assay [2] it was 0.6%; in assay [3], 101%; in assay [4], 100%. For the same compound, the IC50 in assay [3] was 0.813 µM; in assay [4], 0.316 µM.

Consider `N#Cc1ncc(N2C(=O)C3(CCC3)N(c3ccc4[nH]ncc4c3)C2=S)cc1C(F)(F)F` [Cpd 92, 5-[8-(1H-indazol-5-yl)-5-oxo-7-thioxo-6,8-diazaspiro[3.4]octan-6-yl]-3-(trifluoromethyl)pyridine-2-carbonitrile], for which the EC50 in assay [1] and in assay [2] was over 15.1 µM in each case. The Emax is 2.8% in assay [1], 1.3% in assay [2], 94.7% in assay [3] and 98.2% in assay [4]. The figures for the IC50 in assay [3] and in assay [4] were 0.631 µM and 0.257 µM, respectively.

Take `N#Cc1ncc(N2C(=O)C3(CCC3)N(c3ccc(Oc4ccccn4)cc3)C2=S)cc1C(F)(F)F` [Cpd 103, 5-[5-oxo-8-[4-(2-pyridyloxy)phenyl]-7-thioxo-6,8-diazaspiro[3.4]octan-6-yl]-3-(trifluoromethyl)pyridine-2-carbonitrile]: the EC50 in assay [1] and in assay [2] was over 15.1 µM throughout. For the same compound, the Emax in assay [1] is 4%; in assay [2], 2%; in assay [3], 29%; in assay [4] it was 64.9%. The IC50 in assay [3] was 0.562 µM; in assay [4] it was 0.107 µM.

As to `Cc1cc(N2C(=O)C3(CCC3)N(c3ccc(OC4CCSCC4)cc3)C2=S)cnc1C#N` [Cpd 13, 3-methyl-5-[5-oxo-8-(4-tetrahydrothiopyran-4-yloxyphenyl)-7-thioxo-6,8-diazaspiro[3.4]octan-6-yl]pyridine-2-carbonitrile], the EC50 in assay [1] (setting [5]) and in assay [2] (setting [7]) was over 15.1 µM in each case. In addition, the Emax in assay [1] (setting [6]) stood at 0.4%; in assay [2] (setting [6]), 0.1%; in assay [3] (setting [8]) it was 102%; in assay [4] (setting [8]), 101%. Also, the IC50 in assay [3] was 0.407 µM; in assay [4] it was 0.229 µM.
